Assay results published in the supplement of paper PMC10627819.

Legend:
S. pneumoniae D39V [1] = experiment: fitness (endpoint OD595 vs no drug) (fraction); higher = more growth
Summary of the method: (§1)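 Fitness compares growth at the stationary-phase transition with the robust mean of no-drug control wells, as a ratio of optical densities. The ratio is capped at 1. Wells of 384-well plates held 30 µl, or 55 µl for S. pneumoniae, inoculated at OD595 0.01. Readings at OD595 every 30 min for 14 h at 37 °C were corrected against the first reading.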

B. subtilis 168 [2] = experiment: as above
Summary of the method: as §1

S. pneumoniae D39V [3] = experiment: Bliss interaction score (quartile over a dose matrix) (fitness difference); higher = more antagonism (negative = synergy)
Summary of the method: (§2)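 Fitness here means normalised growth, inferred for single drugs from the combination data. Growth was OD595 at entry into stationary phase, divided by the plate's robust no-drug mean and capped at 1. The Bliss score is observed minus expected fitness, with the expectation being the product, and its quartiles span technical, biological and donor/recipient replicates.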

S. aureus DSM 20231 = experiment: as above
Summary of the method: as §2

B. subtilis 168 [4] = experiment: as above
Summary of the method: as §2

S. aureus Newman = experiment: as above
Summary of the method: as §2
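Wherever Bliss interaction score (quartile over a dose matrix) is given: first quartile when negative (synergy) and third quartile when positive (antagonism).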
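Wherever fitness (endpoint OD595 vs no drug) is given: OD595 on entry to stationary phase over no-drug wells; at most 1.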

C[C@H]1COc2c(N3CCN(C)CC3)c(F)cc3c(=O)c(C(=O)O)cn1c23 [Levofloxacin] + Cc1cc(NS(=O)(=O)c2ccc(N)cc2)no1 [Sulfamethoxazol]
fitness
Conditions | partner 1 µg/mL | partner 2 µg/mL | partner 4 µg/mL
B. subtilis 168 [2], first compound 0.002 µg/mL | 0.867 | 0.881 | –
B. subtilis 168 [2], first compound 0.0039 µg/mL | 0.831 | 0.841 | –
B. subtilis 168 [2], first compound 0.0312 µg/mL | 0.0318 | 0.0375 | 0.0268
B. subtilis 168 [2], first compound 0.0625 µg/mL | 0.0358 | 0.0467 | 0.0289
B. subtilis 168 [2], first compound 0.125 µg/mL | 0.0382 | 0.0353 | 0.0242
S. pneumoniae D39V [1], first compound 0.1725 µg/mL | 0.935 | 0.972 | 0.967
S. pneumoniae D39V [1], first compound 0.345 µg/mL | 0.824 | 0.827 | 0.833
S. pneumoniae D39V [1], first compound 0.69 µg/mL | 0.455 | 0.461 | 0.498

fitness, one replicate
Conditions | partner 0.5 µg/mL | partner 1 µg/mL | partner 2 µg/mL | partner 4 µg/mL
B. subtilis 168 [2], first compound 0.001 µg/mL | – | 0.98 | 0.98 | 0.929
B. subtilis 168 [2], first compound 0.002 µg/mL | 0.955 | – | – | 0.885
B. subtilis 168 [2], first compound 0.0039 µg/mL | 0.939 | – | – | 0.834
B. subtilis 168 [2], first compound 0.0078 µg/mL | 0.862 | 0.782 | 0.788 | –
S. pneumoniae D39V [1], first compound 0.2 µg/mL | – | 0.955 | 0.902 | 0.841
S. pneumoniae D39V [1], first compound 0.4 µg/mL | – | 0.854 | 0.87 | 0.771
S. pneumoniae D39V [1], first compound 0.8 µg/mL | – | 0.373 | 0.495 | 0.487

Conditions | Bliss interaction score
B. subtilis 168 [4] | -0.0263
S. aureus DSM 20231 | -0.125
S. aureus Newman | 0.0779
S. pneumoniae D39V [3] | -0.0634

C[C@H]1COc2c(N3CCN(C)CC3)c(F)cc3c(=O)c(C(=O)O)cn1c23 [Levofloxacin] + Cc1ncc([N+](=O)[O-])n1CCO [Metronidazole]
Conditions | fitness
B. subtilis 168 [2], first compound 0.0312 µg/mL, partner 0.625 µg/mL | 0.0462
B. subtilis 168 [2], first compound 0.0312 µg/mL, partner 1.25 µg/mL | 0.0567
B. subtilis 168 [2], first compound 0.0312 µg/mL, partner 2.5 µg/mL | 0.0324
B. subtilis 168 [2], first compound 0.0625 µg/mL, partner 0.625 µg/mL | 0.0491
B. subtilis 168 [2], first compound 0.0625 µg/mL, partner 1.25 µg/mL | 0.0521
B. subtilis 168 [2], first compound 0.0625 µg/mL, partner 2.5 µg/mL | 0.0541
B. subtilis 168 [2], first compound 0.125 µg/mL, partner 0.625 µg/mL | 0.0404
B. subtilis 168 [2], first compound 0.125 µg/mL, partner 1.25 µg/mL | 0.0466
B. subtilis 168 [2], first compound 0.125 µg/mL, partner 2.5 µg/mL | 0.0398
S. pneumoniae D39V [1], first compound 0.1725 µg/mL, partner 1.25 µg/mL | 0.985
S. pneumoniae D39V [1], first compound 0.1725 µg/mL, partner 2.5 µg/mL | 0.993
S. pneumoniae D39V [1], first compound 0.1725 µg/mL, partner 5 µg/mL | 0.976
S. pneumoniae D39V [1], first compound 0.2 µg/mL, partner 1.073 µg/mL | 0.95
S. pneumoniae D39V [1], first compound 0.2 µg/mL, partner 2.145 µg/mL | 0.91
S. pneumoniae D39V [1], first compound 0.2 µg/mL, partner 4.29 µg/mL | 0.899
S. pneumoniae D39V [1], first compound 0.345 µg/mL, partner 1.25 µg/mL | 0.903
S. pneumoniae D39V [1], first compound 0.345 µg/mL, partner 2.5 µg/mL | 0.92
S. pneumoniae D39V [1], first compound 0.345 µg/mL, partner 5 µg/mL | 0.931
S. pneumoniae D39V [1], first compound 0.4 µg/mL, partner 1.073 µg/mL | 0.873
S. pneumoniae D39V [1], first compound 0.4 µg/mL, partner 2.145 µg/mL | 0.85
S. pneumoniae D39V [1], first compound 0.4 µg/mL, partner 4.29 µg/mL | 0.819
S. pneumoniae D39V [1], first compound 0.69 µg/mL, partner 1.25 µg/mL | 0.7
S. pneumoniae D39V [1], first compound 0.69 µg/mL, partner 2.5 µg/mL | 0.704
S. pneumoniae D39V [1], first compound 0.69 µg/mL, partner 5 µg/mL | 0.686
S. pneumoniae D39V [1], first compound 0.8 µg/mL, partner 1.073 µg/mL | 0.765
S. pneumoniae D39V [1], first compound 0.8 µg/mL, partner 2.145 µg/mL | 0.765
S. pneumoniae D39V [1], first compound 0.8 µg/mL, partner 4.29 µg/mL | 0.71

fitness, B. subtilis 168 [2], one replicate
Conditions | first compound 0.001 µg/mL | first compound 0.002 µg/mL | first compound 0.0039 µg/mL
partner 0.625 µg/mL | 0.946 | 0.911 | 0.852
partner 1.25 µg/mL | 0.96 | 0.85 | 0.845
partner 2.5 µg/mL | 0.965 | 0.929 | 0.855

Conditions | Bliss interaction score
B. subtilis 168 [4] | 0.0195
S. aureus DSM 20231 | -0.0575
S. aureus Newman | -0.0661
S. pneumoniae D39V [3] | 0.121
